Laboratory results as given in patent US9260418B2, “Pyranyl aryl methyl benzoquinolinone M1 receptor positive allosteric modulators” (Merck Sharp & Dohme Corp., priority 2009, dated 2016).

Target: T1, acetylcholine muscarinic M1 receptor (Homo sapiens, UniProt P11229)
T1 construct: expressed in transfected cells; host or cells: CHOnfat cells (CHO), under Geneticin selection; b382 calls them CHOK1/hM1
T1 sequence (P11229 1-460): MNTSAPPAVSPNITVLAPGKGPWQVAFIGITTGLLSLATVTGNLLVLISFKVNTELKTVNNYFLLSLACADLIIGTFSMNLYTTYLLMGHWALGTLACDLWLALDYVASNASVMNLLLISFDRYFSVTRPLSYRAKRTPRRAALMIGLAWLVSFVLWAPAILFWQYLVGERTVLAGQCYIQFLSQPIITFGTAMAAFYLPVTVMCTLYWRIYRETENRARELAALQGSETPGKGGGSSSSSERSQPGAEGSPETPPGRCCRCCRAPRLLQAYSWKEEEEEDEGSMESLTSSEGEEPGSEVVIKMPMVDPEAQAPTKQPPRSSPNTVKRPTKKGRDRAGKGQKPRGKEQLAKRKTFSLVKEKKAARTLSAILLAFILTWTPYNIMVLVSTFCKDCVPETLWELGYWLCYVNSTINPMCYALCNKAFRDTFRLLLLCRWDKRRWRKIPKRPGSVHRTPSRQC
Test: muscarinic FLIPR intracellular calcium assay, potentiation of EC20 acetylcholine in CHOnfat/hM1 cells
Assay type: cell-based
Conditions: inflection point calculated from FLIPR values, 4 min preincubation, then EC20 acetylcholine (3 nM final), read-out: IP Value
Protocol: The assay studies the effect of one or several concentrations of test compounds on basal or acetylcholine-stimulated Ca^2+ levels using FLIPR.
Compounds are prepared and subjected to a preincubation period of 4 min. Thereafter, a single EC20 concentration of acetylcholine is added to each well (3 nM final). The intracellular Ca^2+ level of each sample is measured and compared to an acetylcholine control to determine any modulatory activity.
Cells: CHOnfat/hM1, hM2, hM3 or hM4 cells are plated 24 hr before the assay at a density of 18,000 cells/well (100 μL) in a 384 well plate. CHOnfat/hM1 and CHOnfat/hM3 Growth Medium: 90% DMEM (Hi Glucose); 10% HI FBS; 2 mM L-glutamine; 0.1 mM NEAA; Pen-Strep; and 1 mg/ml Geneticin, are added. For M2Gqi5CHOnfat and M4Gqi5CHOnfat cells, an additional 600 ug/ml hygromycin is added.
Equipment: 384 well plate, 120 μL addition plate; 96-well Whatman 2 ml Uniplate Incubator, 37° C., 5% CO2; Skatron EMBLA-384 Plate Washer; Multimek Pipetting System; Genesis Freedom 200 System; Mosquito System; Temo Nanolitre Pipetting System; and FLIPR^384 Fluorometric Imaging Plate Reader System are used.
Buffers. Assay Buffer: Hanks Balanced Salt Solution, with 20 mM Hepes, 2.5 mM Probenecid (Sigma P-8761) first dissolved in 1 N NaOH, 1% Bovine Serum Albumin (Sigma A-9647). Dye Loading Buffer: Assay Buffer plus 1% Fetal Bovine Serum and Fluo-4AM/Pluronic Acid Mixture. 2 mM Fluo-4AM ester stock in DMSO (Molecular Probes F-14202) Concentration of 2 μM in buffer for a final concentration of 1 μM in Assay. 20% Pluronic Acid Solution stock, with concentration of 0.04% in Buffer, 0.02% in Assay.
65 μL of 2 mM Fluo-4AM are mixed with 130 μL of 20% Pluronic Acid. The resulting solution and 650 μL FBS is added to the assay buffer for a total volume of 65 mL. Positive Controls: 4-Br-A23187: 10 mM in DMSO; final concentration 10 μM. Acetylcholine: 10 mM in water, working stock at both 20 μM and 30 μM in assay buffer, final concentration of 10 μM. This is used to check the maximum stimulation of the CHOK1/hM1 cells. 20 μM (2×) acetylcholine is added in the preincubation part of the assay, and the 30 μM (3×) stock is added in the second part. (EC20)Acetylcholine: 10 mM in water, working stock of 9 nM (3×), and final concentration in assay is 3 nM. This is used after the preincubation with test compounds. Addition of the EC20 Acetylcholine to each well with a test compound will ascertain any modulator activity. 24 wells contain 3 nM Acetylcholine alone as a control.
Screening Plate: Compounds are titrated in 96-well plates (columns 2-11), 100% DMSO, started at a concentration of 15 mM (150× stock concentration), and 3-fold serial dilutions using Genesis Freedom200 System. Four 96-well plates are combined into a 384-well plate using Mosquito Nanolitre Pipetting System by transferring 1 μl of serial diluted compounds to each well, and 1 mM acetylcholine (100× stock concentration) were added as a control. Using Temo, 49 μl assay buffer is added to each well of the 384-well plate right before assay.
In a 96-well Whatman 2 ml Uniplate, 9 nM Acetylcholine (3×) is pipetted into wells corresponding to the screening compounds, and into control wells. The 30 μM acetylcholine control (3×) is added into control wells, and the 3× agonist plate is transferred into a 384 well plate.
Cells are washed three times with 100 μL of buffer, leaving 30 μL of buffer in each well. Using Multimek, 30 μL of Dye Loading Buffer is added into each well and incubated at 37° C., 5% CO2 for up to one hr.
After 60 min, the cells are washed three times with 100 μL of buffer, leaving 30 μL of buffer in each well. The cell plate, screening plate, and agonist addition plates are placed on the platform in the FLIPR and the door closed. A signal test to check background fluorescence and basal fluorescence signal is performed. Laser intensity is adjusted if necessary. […]

Structure (SMILES) | EC50 [nM]
O=c1c2cc(Cc3ccc(Cl)nc3)c3ccccc3c2ncn1[C@H]1CCOC[C@@H]1O [Example 1, 6-[(6-Chloropyridin-3-yl)methyl]-3-[(3R,4S)-3-hydroxytetrahydro-2H-pyran-4-yl]benzo[h]quinazolin-4(3H)-one] | 13
O=c1c2cc(Cc3ccnc(F)c3)c3ccccc3c2ncn1[C@H]1CCOC[C@@H]1O [Example 25, 6-[(2-Fluoropyridin-4-yl)methyl]-3-[(3R,4S)-3-hydroxytetrahydro-2H-pyran-4-yl]benzo[h]quinazolin-4(3H)-one] | 15
O=c1c2cc(Cc3cc[n+]([O-])c(Cl)c3)c3ccccc3c2ncn1[C@H]1CCOC[C@@H]1O [Example 24, 6-[(2-Chloro-1-oxidopyridin-4-yl)methyl]-3-[(3R,4S)-3-hydroxytetrahydro-2H-pyran-4-yl]benzo[h]quinazolin-4(3H)-one] | 58
O=c1c2cc(Cc3ccc(-n4cccn4)nc3)c3ccccc3c2ncn1[C@H]1CCOC[C@@H]1O [Example 5, 3-[(3R,4S)-3-Hydroxytetrahydro-2H-pyran-4-yl]-6-{[6-(1H-pyrazol-1-yl)pyridine-3-yl]methyl}benzo[h]quinazolin-4(3H)-one] | 15
O=c1c2cc(Cc3ccc(N4CCOCC4)cc3)c3ccccc3c2ncn1[C@H]1CCOC[C@@H]1O [Example 12, 3-[(3R,4S)-3-Hydroxytetrahydro-2H-pyran-4-yl]-6-(4-morpholin-4-ylbenzyl)benzo[h]quinazolin-4(3H)-one] | 21
O=c1c2cc(Cc3ccc(CO)nc3)c3ccccc3c2ncn1[C@H]1CCOC[C@@H]1O [Example 21, 6-{[6-(Hydroxymethyl)pyridine-3-yl]methyl}-[(3R,4S)-3-hydroxytetrahydro-2H-pyran-4-yl]benzo[h]quinazolin-4(3H)-one] | 28
O=c1c2cc(Cc3cccnc3)c3ccccc3c2ncn1[C@H]1CCOC[C@@H]1O [Example 6] | 23
C[S+]([O-])c1ccc(Cc2cc3c(=O)n([C@H]4CCOC[C@@H]4O)cnc3c3ccccc23)cn1 (stereo partly drawn) [Example 17, 3-[(3R,4S)-3-Hydroxytetrahydro-2H-pyran-4-yl]-6-{[6-(methylsulfinyl)pyridine-3-yl]methyl}benzo[h]quinazolin-4(3H)-one] | 90
N#Cc1ccc(Cc2cc3c(=O)n([C@H]4CCOC[C@@H]4O)cnc3c3ccccc23)cn1 [Example 8, 5-({3-[(3R,4S)-3-Hydroxytetrahydro-2H-pyran-4-yl]-4-oxo-3,4-dihydrobenzo[h]quinazolin-6-yl}methyl)pyridine-2-carbonitrile] | 31
O=c1c2cc(Cc3ccc(C(F)F)nc3)c3ccccc3c2ncn1[C@H]1CCOC[C@@H]1O [Example 23, 6-{[6-(Difluoromethyl)pyridine-3-yl]methyl}-3-[(3R,4S)-3-hydroxytetrahydro-2H-pyran-4-yl]benzo[h]quinazolin-4(3H)-one] | 14
O=c1c2cc(Cc3ccc(CF)nc3)c3ccccc3c2ncn1[C@H]1CCOC[C@@H]1O [Example 22, 6-{[6-(Fluoromethyl)pyridine-3-yl]methyl}-3-[(3R,4S)-3-hydroxytetrahydro-2H-pyran-4-yl]benzo[h]quinazolin-4(3H)-one] | 23
CCc1ccc(Cc2cc3c(=O)n([C@H]4CCOC[C@@H]4O)cnc3c3ccccc23)cn1 [Example 9, 6-[(6-Ethylpyridin-3-yl)methyl]-3-[(3R,4S)-3-hydroxytetrahydro-2H-pyran-4-yl]benzo[h]quinazolin-4(3H)-one] | 16
CC(=O)c1ccc(Cc2cc3c(=O)n([C@H]4CCOC[C@@H]4O)cnc3c3ccccc23)cn1 [Example 10, 6-[(6-Acetylpyridin-3-yl)methyl]-3-[(3R,4S)-3-hydroxytetrahydro-2H-pyran-4-yl]benzo[h]quinazolin-4(3H)-one] | 30
Cn1cc(-c2ccc(Cc3cc4c(=O)n([C@H]5CCOC[C@@H]5O)cnc4c4ccccc34)cn2)cn1 [Example 4, 3-[(3R,4S)-3-Hydroxytetrahydro-2H-pyran-4-yl]-6-{[6-(1-methyl-1H-pyrazol-4-yl)pyridine-3-yl]methyl}benzo[h]quinazolin-4(3H)-one] | 2.5
CS(=O)(=O)c1ccc(Cc2cc3c(=O)n([C@H]4CCOC[C@@H]4O)cnc3c3ccccc23)cn1 [Example 16, 3-[(3R,4S)-3-Hydroxytetrahydro-2H-pyran-4-yl]-6-{[6-(methylsulfonyl)pyridine-3-yl]methyl}benzo[h]quinazolin-4(3H)-one] | 53

More lines, now with the values ahead:

EC50 [nM] | Structure (SMILES)
7.1 | Cc1ccc(-c2ccc(Cc3cc4c(=O)n([C@H]5COCC[C@@H]5O)cnc4c4ccccc34)cn2)cn1 [Example 34, 3-[(3S,4S)-4-Hydroxytetrahydro-2H-pyran-3-yl]-6-[(6′-methyl-2,3-bipyridin-5-yl)methyl]benzo[h]quinazolin-4(3H)-one]
275 | Cn1cc(Br)c2c(Cc3cc4c(=O)n([C@H]5CCOC[C@@H]5O)cnc4c4ccccc34)ccnc21 [Example 31, 6-[(3-Bromo-1-methyl-1H-pyrrolo[2,3-b]pyridine-4-yl)methyl]-3-[(3R,4S)-3-hydroxytetrahydro-2H-pyran-4-yl]benzo[h]quinazolin-4(3H)-one]
27 | CCOc1ccc(Cc2cc3c(=O)n([C@H]4CCOC[C@@H]4O)cnc3c3ccccc23)cn1 [Example 27, 6-[(6-Ethyoxypyridin-3-yl)methyl]-3-[(3R,4S)-3-hydroxytetrahydro-2H-pyran-4-yl]benzo[h]quinazolin-4(3H)-one]
39 | O=c1c2cc(Cc3ccc(OC(F)F)nc3)c3ccccc3c2ncn1[C@H]1CCOC[C@@H]1O [Example 29, 6-{[6-(Difluoromethoxy)pyridine-3-yl]methyl}-3-[(3R,4S)-3-hydroxytetrahydro-2H-pyran-4-yl]benzo[h]quinazolin-4(3H)-one]
32 | CCn1ccc2c(Cc3cc4c(=O)n([C@H]5CCOC[C@@H]5O)cnc4c4ccccc34)ccnc21 [Example 32, 6-[(1-Ethyl-1H-pyrrolo[2,3-b]pyrdin-4-yl)methyl]-3-[(3R,4S)-3-hydroxytetrahydro-2H-pyran-4-yl]benzo[h]quinazolin-4(3H)-one]
4800 | O=c1c2cc(Cc3ccc(Cl)nc3)c3ccccc3c2ncn1C1CCNCC1 [Example 37, 6-[(6-Chloropyridin-3-yl)methyl]-3-piperidin-4-ylbenzo[h]quinazolin-4(3H)-one]
34 | COc1cc(Cc2cc3c(=O)n([C@H]4CCOC[C@@H]4O)cnc3c3ccccc23)ccn1 [Example 26, 3-[(3R,4S)-3-Hydroxytetrahydro-2H-pyran-4-yl]-6-[(2-methoxypyridin-4-yl)methyl]benzo[h]quinazolin-4(3H)-one]
